Results from patent publication US20220168301A1, “METHODS FOR TREATING SYMPTOMATIC ORTHOSTATIC HYPOTENSION” (Cerecor Inc, priority 2019, published 2022).
Read-outs that look alike come from different tables or passages of the source.

How the values were obtained:
[1] = system: patients with symptomatic nOH associated with Parkinson's disease; experiment: Safety and tolerability of single doses in patients with nOH associated with Parkinson's disease; type: in vivo, human
Description: This study was designed as a randomized, double-blind, placebo-controlled trial in order to distinguish effects of active treatment in an efficient and unbiased manner. As CERC-301 had not previously been tested in subjects with symptomatic OH, a single escalating dose study design was used to ensure safety of the study participants.
(§1) Subjects were dosed on five separate occasions, approximately 7-10 days apart, with one of four single escalating doses of CERC-301 or placebo and underwent an orthostatic challenge test to assess the safety, tolerability, effect on blood pressure, and PK. Subjects also completed a symptomatic assessment following the orthostatic challenge. Subjects were enrolled and randomized based on the dosing schedule in Table 4:
AEs were monitored and the following information recorded: • Verbatim complaint • Whether the event was treatment-emergent (TEAE) • Whether event was serious (SAE) • Date of onset • Severity of event • Relationship of event to study drug • Action taken regarding study drug due to the event • Clinical outcome of event (resolved or ongoing) • If resolved, provide date of resolution
The following vital signs were measured during the study: • Blood pressure (systolic and diastolic [mm Hg]) • Heart rate (beats per minute [bpm]) • Oral body temperature (°C)
Two analysis sets were used. […] The SAF consists of all randomized subjects who receive at least one dose of study medication. […] The PKAS consists of all subjects from the SAF for whom sufficient plasma concentration data are available to facilitate the calculation of at least one PK parameter.
All safety and tolerability data are summarized using descriptive statistics. They are listed and summarized in tabular and/or graphical form. […] Descriptive statistics for laboratory values and their change or shift from baseline for each dose group are provided for each scheduled time of collection. Descriptive statistics for vital signs and their change from baseline for each dose group are provided for each scheduled time of collection. The placebo subjects are combined into a single placebo group for summary presentations.

[2] = Plasma pharmacokinetics of single escalating doses in patients with symptomatic nOH associated with Parkinson's disease; type: in vivo, human; conditions: for Cmax / AUC: human, plasma, oral; for AUC: 6-hour PK collection period, read-out: Area Under the Curve (AUC)
Description: as §1
Investigational product was administered as CERC-301 4 mg tablets and matching placebo. Study drug was administered orally (P.O) with water approximately 1.5 hours after the patient consumed breakfast.
PK samples were drawn pre-dose and at 0.5, 1, 2, 4 and 6 hours post-dose. All blood draws were done after blood pressure measures are taken.
Blood samples for plasma concentration analysis of CERC-301 were collected at pre-dose and 0.5, 1, 2, 4 and 6 hours post-dose at all visits.
Blood sampling, processing, storage, and shipping instructions were provided in the Laboratory Manual. The plasma samples were analyzed via liquid chromatography tandem mass spectrometry (LC-MS/MS) following a validated method.
PK parameter estimates for CERC 301 were calculated using standard non-compartmental methods of analysis.

[3] = rats, cited from earlier work
healthy subjects = experiment: Safety and tolerability over 7 days of once-daily administration in healthy subjects; type: in vivo, human
Description: The study was a randomized, double-blind, placebo-controlled parallel-group, three-part, repeated dose in-patient study investigating the safety, tolerability, PK, and PD of CERC-301 in healthy subjects.
Subjects received 8, 12, 16 or 20 mg CERC-301 or matching placebo once-daily for 7 days.
The safety variables evaluated included treatment-emergent adverse events (TEAE), vital signs, clinical safety laboratories (chemistry, hematology, urinalysis), electrocardiograms (ECGs), physical examinations, Clinician Administered Dissociated States Scale (CADSS) and Columbia-Suicide Severity Rating Scale (C-SSRS).

[4] = whole study, active and placebo not separated

SMILES: Cc1ccc(COC(=O)N2CC[C@H](CNc3ncccn3)[C@H](F)C2)cc1 [CERC-301]
- Safety and tolerability ([1]; single doses of 8, 12, 16 and 20 mg): safe and well tolerated
- Signals of increased heart rate or supine hypertension during the recumbent phase of the OST, active versus placebo ([1]; single doses of 8 to 20 mg): No signals of increased heart rate or, supine hypertension
- SAEs ([1]; whole study): No SAEs were reported
- AE reported: blurred vision [1, 4]: 14.3%
- AE reported: dizziness [1, 4]: 7.1%
- AE reported: fall [1, 4]: 14.3%
- AE reported: hypoaesthesia [1, 4]: 7.1%
- AE reported: hypotension [1, 4]: 7.1%
- AE reported: memory impairment [1, 4]: 7.1%
- AE reported: nasal congestion [1, 4]: 7.1%
- AE reported: on/off phenomenon [1, 4]: 7.1%
- AE reported: somnolence [1, 4]: 7.1%
- AE reported: squamous cell carcinoma [1, 4]: 7.1%
- Cmax dose proportionality ([2]; 8 to 20 mg single doses (FIG. 2)): generally dose proportional
- Tmax ([2]; all dosing groups (8, 12, 16, 20 mg single dose P.O.)): approximately 2 hours post dose
- Cmax ([2]; 8 mg single dose): 108 ng/mL
- AUC ([2]; 8 mg single dose): 473 ng·h/mL
- Cmax ([2]; 12 mg single dose): 161 ng/mL
- AUC ([2]; 12 mg single dose): 795 ng·h/mL
- Cmax ([2]; 16 mg single dose): 187 ng/mL
- AUC ([2]; 16 mg single dose): 954 ng·h/mL
- Cmax ([2]; 20 mg single dose): 266 ng/mL
- AUC ([2]; 20 mg single dose): 1240 ng·h/mL
- Excretion [3]: excreted exclusively as metabolites via both the biliary and renal routes
- Metabolism [3]: highly metabolized via multiple cytochrome P450 (CYP450) enzymes
- Absorption ([3]; oral administration): rapidly absorbed after oral administration
- Changes in vital signs, ECGs or physical examination attributable to CERC-301 (healthy subjects; 8 to 20 mg for 7 days): no clinically significant adverse changes
- Dose-related or age-related differences in TEAEs or related AEs (healthy subjects; 8 to 20 mg for 7 days): no clear-cut dose-related or age-related differences
- Most common related AEs (each in at least two subjects receiving CERC-301) (healthy subjects; 8 to 20 mg for 7 days): feeling abnormal, headache, feeling of relaxation, elevated mood, dizziness, logorrhea, sedation, visual impairment, energy increased, palpitations, disturbance in attention, hypervigilance, confusional state, oral paresthesia, anxiety, chest pain, depressed mood, diarrhea, and balance disorder
- Laboratory abnormalities attributable to CERC-301 (healthy subjects; except ALT/AST increases in one elderly and elevated prolactin in one young, both 12 mg): no clinically significant laboratory abnormalities
- Tolerability (healthy subjects; repeated daily doses of 8, 12, 16 and 20 mg for 7 days): generally well tolerated
